Inconclusive results are not listed. Active and inactive are the calls of the source.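 Rule for the calls: active = signal-lowering compounds whose fitted half-maximal concentration is at most ten times their highest tested dose; inconclusive = flat fit between -30 and -70%, or poor fit; inactive = flat within 30%, signal rising, or potency beyond limit.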
The molecules below were run against POS-1 (Caenorhabditis elegans) binding to mex-3 RNA (assay: C. elegans POS-1 RNA interaction disruptors – biochemical, fluorescence polarization, cherry-picked samples, set 2, counter-screen for MEX-5 RNA-binding inhibitor project, dose response (AID 493130;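 note: POS-1 as maltose binding protein fusion made in E. coli with FITC RNA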)). Conditions: POS-1/mex-3 RNA fluorescence polarization, 1 h.
With `CC(=O)Nc1ccc(S(=O)(=O)NNC(=O)C(=O)NNc2ccccn2)cc1` the AC50 was > 10 µM (inactive).
`CN(C)[C@@H]1C(=O)C(C(N)=O)=C(O)[C@@]2(O)C(=O)C3=C(O)c4c(O)cccc4[C@@](C)(O)[C@H]3[C@H](O)[C@@H]12` showed an AC50 of 4.07 µM.
`CN(CCC#N)C(=O)COC(=O)c1c2c(nc3ccccc13)/C(=C/c1ccco1)CC2` was tested, and the AC50 was > 10 µM (inactive).
`CCOc1cc(/C=C2\CCCc3c2nc2ccccc2c3C(=O)O)ccc1OC` showed an AC50 of 0.948 µM.
Work on `CN1CC=C2C(C#N)=C(N)C(C#N)(C#N)C(Cc3ccccc3)C2C1` (centres undefined) yielded an AC50 of 6.58 µM.
In the case of `COCC1CCN(Cc2c(C(=O)N3CCc4ccccc4C3)nc3ccc(Cl)cn23)C1` (centres undefined), the AC50 is reported as > 10 µM (inactive).
In the case of `Cc1ccc(C)n1-c1sccc1C(=O)O`, the AC50 is reported as 6.08 µM.
`CN1CC=C2C(C#N)=C(N)C(C#N)(C#N)[C@H](c3cccs3)[C@H]2C1` was tested, and the AC50 was 6.12 µM.
For `O=C(N/N=C/c1c(O)n(C2CC2)c(=S)[nH]c1=O)c1ccccc1O`, the AC50 was 6.64 µM.
With `CN1CC=C2C(C#N)=C(N)C(C#N)(C#N)[C@H](c3ccoc3)[C@H]2C1` the AC50 was 5.4 µM.
For `O=c1ccc2cc3c([nH]c4ccc(Br)cc43)oc-2c1O`, the AC50 was 1.64 µM.
With `CCN1CC=C2C(C#N)=C(N)C(C#N)(C#N)[C@H](c3ccoc3)[C@H]2C1` the AC50 was 6.73 µM.
With `CCCC1=NN2C(=N)/C(=C\c3ccc(SCc4ccco4)o3)C(=O)N=C2S1` the AC50 was 0.699 µM.

Same assay, conditions: POS-1/mex-3 RNA fluorescence polarization, 1 h; at 10 µM (top of the series)
For `CNC(=O)c1c(NC(=O)c2ccc(S(=O)(=O)N(C)c3ccccc3)cc2)sc2c1CCN(C(C)C)C2`, the “activity change, negative = inhibition” value was “inactive”.
For `Cc1c(C#N)c(O)[nH]c(=O)c1N=Nc1ccc(S(N)(=O)=O)cc1`, the “activity change, negative = inhibition” value was “inactive”.
For `Cc1ccc(N=Nc2c(O)n(CN3CCOCC3)c3ccccc23)cc1`, the “activity change, negative = inhibition” value was “inactive”.
In the case of `CC(C)N1CCc2c(sc(NC(=O)c3ccc(S(=O)(=O)N4CCCCC4C)cc3)c2C(N)=O)C1` (centres undefined), the “activity change, negative = inhibition” value is reported as “inactive”.
For `Oc1c(Cl)cc(Cl)c2c1NCCC2`, the “activity change, negative = inhibition” value was “inactive”.
For `CCC(=O)N(CC)C1=C(O)c2ccccc2C(=O)C1=O`, the “activity change, negative = inhibition” value was “inactive”.
In the case of `COc1cccc(-c2cn3nc4c(nc3n2)CCCC4)c1`, the “activity change, negative = inhibition” value is reported as “inactive”.
With `COc1cccc(NC2=C(NCCO)C(=O)c3ccccc3C2=O)c1` the “activity change, negative = inhibition” value was “inactive”.
In the case of `Cc1ccc(C(=O)/C=C/c2ccccc2[N+](=O)[O-])cc1`, the “activity change, negative = inhibition” value is reported as “inactive”.
In the case of `CC(C)OC(=O)c1c2c(n3ccccc13)C(=O)c1ccccc1C2=O`, the “activity change, negative = inhibition” value is reported as “inactive”.
In the case of `Cc1ccc(C(=O)N/N=C/c2ccc(-c3ccc(Br)cc3[N+](=O)[O-])o2)o1`, the “activity change, negative = inhibition” value is reported as “inactive”.
`CCCOc1ccc([C@@H]2C3CN(C(=O)OCC)CC=C3C(C#N)=C(N)C2(C#N)C#N)cc1OC` (some centres undefined) was tested, and the “activity change, negative = inhibition” value was “inactive”.
In the case of `CCN=c1scc(-c2ccco2)n1/N=C/c1ccc(O)cc1`, the “activity change, negative = inhibition” value is reported as “inactive”.
`CCc1cccc2cc3c(N)c(C(=O)Nc4ccc(S(=O)(=O)N5CCCC5)cc4)sc3nc12` was tested, and the “activity change, negative = inhibition” value was “inactive”.
For `COc1ccc(-n2c(C)nc3cc(C(=O)O)ccc32)cc1`, the “activity change, negative = inhibition” value was “inactive”.
`O=C1c2cccc3c(Cl)ccc(c23)C(=O)N1O` was tested, and the “activity change, negative = inhibition” value was “inactive”.
With `CNC(=O)c1c(NC(=O)c2nc3ccccc3s2)sc2c1CCC2` the “activity change, negative = inhibition” value was “inactive”.
With `CN1CCN(c2nc(-c3ccccc3)nc(-c3ccccc3)c2C#N)CC1` the “activity change, negative = inhibition” value was “inactive”.
In the case of `Cc1cccc(NC(=O)CN2C(=O)S/C(=C\c3ccc(-c4cccc(C(=O)O)c4C)o3)C2=O)c1`, the “activity change, negative = inhibition” value is reported as “inactive”.
`Cc1ccc(S(=O)(=O)c2cc3c(=O)n4cccc(C)c4nc3n(C3CCCCC3)c2=N)cc1` was tested, and the “activity change, negative = inhibition” value was “inactive”.
In the case of `COCCn1c(=N)c(S(=O)(=O)c2ccc(F)cc2)cc2c(=O)n3ccccc3nc21`, the “activity change, negative = inhibition” value is reported as “inactive”.
`O=C(O)c1ccc(NCc2cccnc2)cc1` was tested, and the “activity change, negative = inhibition” value was “inactive”.
For `Nc1c(C(=O)Nc2cccc(Cl)c2Cl)sc2nc(-c3cccnc3)ccc12`, the “activity change, negative = inhibition” value was “inactive”.
`CCCCCOP(=O)(OCCCCC)C1(NS(=O)(=O)c2ccccc2)C=CC(=O)c2ccccc21` (centres undefined) was tested, and the “activity change, negative = inhibition” value was “inactive”.
`COc1ccc(C2NC(=O)N(CCCC(=O)O)C(C)=C2C(=O)OCc2ccccc2)cc1` (centres undefined) was tested, and the “activity change, negative = inhibition” value was “inactive”.
`COC(=O)COc1ccc2c(c1)O/C(=C\c1cccc([N+](=O)[O-])c1)C2=O` was tested, and the “activity change, negative = inhibition” value was “inactive”.
`CCCCC1=CC2=C(c3ccco3)C(=O)C(C)(OC(=O)c3ccc(OC)cc3)C(=O)C2=CN1C(CO)CO` (centres undefined) was tested, and the “activity change, negative = inhibition” value was “inactive”.
`CS(=O)(=O)c1nsc2nc(=O)c(/C=C3\C=Nc4ccccc43)c(N)n12` was tested, and the “activity change, negative = inhibition” value was “inactive”.
For `O=C(N/N=C/c1c(O)n(Cc2ccco2)c(=O)[nH]c1=O)c1ccccc1`, the “activity change, negative = inhibition” value was “inactive”.
With `COC(=O)c1ccccc1-c1ccc(C(c2c(C)[nH][nH]c2=O)c2c(C)[nH][nH]c2=O)o1` the “activity change, negative = inhibition” value was “inactive”.
For `NC1=C([N+](=O)[O-])C(c2ccc3c(c2)OCO3)C2=C(CCCC2=O)O1` (centres undefined), the “activity change, negative = inhibition” value was “inactive”.
`COc1cccc(CNC23CC4CC(CC(C4)C2)C3)c1OCc1ccccc1` was tested, and the “activity change, negative = inhibition” value was “inactive”.
With `Fc1ccc(N=c2ssnc2Cl)c(F)c1` the “activity change, negative = inhibition” value was “inactive”.
For `CC(=O)Nc1ccc(S(=O)(=O)/N=C2/NC(=O)/C(=C\c3ccco3)S2)cc1`, the “activity change, negative = inhibition” value was “inactive”.
`Cn1ccc(=Nc2ccc(NC(=O)c3ccc(N=c4ccn(C)c5ccc([N+](=O)[O-])cc45)cc3)cc2)cc1` was tested, and the “activity change, negative = inhibition” value was “inactive”.
`COc1ccc(/C=N/NC(=S)Nc2cccc(C(=O)O)c2)cc1` was tested, and the “activity change, negative = inhibition” value was “inactive”.
In the case of `CCOC(=O)c1c(-c2ccccc2)oc2ccc(OCC(=O)NNC(=O)CCC(=O)O)cc12`, the “activity change, negative = inhibition” value is reported as “inactive”.
For `O=C(O)c1ccc2cccnc2n1`, the “activity change, negative = inhibition” value was “inactive”.
`Nc1c(NCc2ccccc2)c(=O)[nH]c(=O)n1Cc1ccccc1` was tested, and the “activity change, negative = inhibition” value was “inactive”.
With `O=C(NN=C1C2CC3CC1CC(Cl)(C3)C2)c1ccccn1` the “activity change, negative = inhibition” value was “inactive”.
With `Nc1ccc(Oc2ncccn2)cc1` the “activity change, negative = inhibition” value was “inactive”.
In the case of `CCC(=O)NCCc1nc2ccccc2n1Cc1ccccc1`, the “activity change, negative = inhibition” value is reported as “inactive”.
In the case of `Nc1nc(-c2ccc(Cl)cc2)nnc1-c1ccc(Br)cc1`, the “activity change, negative = inhibition” value is reported as “inactive”.
In the case of `C#CCOCCOCCOCCNc1nc(N2CCN(C(=O)[C@H]([C@@H](C)CC)n3cc([C@@H](N)CO)nn3)CC2)nc(N2CCN(C(=O)[C@H]([C@@H](C)CC)n3cc([C@@H](N)CO)nn3)CC2)n1`, the “activity change, negative = inhibition” value is reported as “inactive”.
For `C#CCN1C(=O)S/C(=C\c2ccc(-c3ccc(Cl)c(C(=O)O)c3)o2)C1=O`, the “activity change, negative = inhibition” value was “inactive”.
For `O=C(O)c1cccc(NC(=S)N/N=C/c2c[nH]c3ccccc23)c1`, the “activity change, negative = inhibition” value was “inactive”.
In the case of `COc1ccc(NS(=O)(=O)c2cccc(C(=O)NNC(=O)c3cc(S(N)(=O)=O)ccc3OC)c2)cc1`, the “activity change, negative = inhibition” value is reported as “inactive”.
`COc1ccc2cc3c(N)c(C(=O)NCc4ccco4)sc3nc2c1` was tested, and the “activity change, negative = inhibition” value was “inactive”.
With `O=C(O)c1ccc2c(c1)C(=O)/C(=C/c1ccccc1)C2=O` the “activity change, negative = inhibition” value was “inactive”.
For `COCCN1CCC(CNCc2cn(-c3cc(C)ccc3C)nc2-c2ccccc2)C1` (centres undefined), the “activity change, negative = inhibition” value was “inactive”.
`CN(C)c1ccc(/C=N/NC(=O)c2cnc3ccccc3c2)cc1` was tested, and the “activity change, negative = inhibition” value was “inactive”.
In the case of `COCCNC(=S)NNC(=O)c1cccs1`, the “activity change, negative = inhibition” value is reported as “inactive”.
In the case of `COc1ccccc1N1C(=O)S/C(=C\c2cccs2)C1=O`, the “activity change, negative = inhibition” value is reported as “inactive”.
In the case of `COc1ccc(C2c3sc(=O)[nH]c3SCC2C(N)=O)cc1` (centres undefined), the “activity change, negative = inhibition” value is reported as “inactive”.
In the case of `COC(=O)C1=C(C)N(c2ccc(C)c(C)c2)/C(=C/c2cccs2)C1=O`, the “activity change, negative = inhibition” value is reported as “inactive”.
For `CN(C)c1ncnc2c1NC1=C(S2)C(=NCCCC(=O)O)CC(C)(C)C1`, the “activity change, negative = inhibition” value was “inactive”.
With `Cc1cc(/C=C(\C#N)c2nc3ccccc3[nH]2)c(C)n1C` the “activity change, negative = inhibition” value was “inactive”.
For `CSCC(C)N1CCC(n2nccc2NC(=O)CCc2ccccc2)CC1` (centres undefined), the “activity change, negative = inhibition” value was “inactive”.
In the case of `N=c1c(C(=O)NCC2CCCO2)cc2c(=O)n3ccccc3nc2n1Cc1ccc(Cl)cc1` (centres undefined), the “activity change, negative = inhibition” value is reported as “inactive”.
In the case of `COc1ccc(-c2cn[nH]c2-c2ccc(O)cc2O)cc1OC`, the “activity change, negative = inhibition” value is reported as “inactive”.
With `COc1ccc(N=C2S/C(=C\c3ccc(N4CCOCC4)o3)C(=O)N2CCc2c[nH]c3ccccc23)cc1` the “activity change, negative = inhibition” value was “inactive”.
In the case of `CCN1C(=O)c2cccc3c(NC(=O)C4CCCCC4)ccc1c23`, the “activity change, negative = inhibition” value is reported as “inactive”.
For `O=C1SC(SCc2ccccc2Cl)=N/C1=C\c1ccc(C(=O)O)cc1`, the “activity change, negative = inhibition” value was “inactive”.
In the case of `Nc1ccccc1C(=O)NNC(=O)C(=O)/C=C(\O)c1ccccc1`, the “activity change, negative = inhibition” value is reported as “inactive”.
For `COc1ccc(/C=C2\SC(=S)N(CCCC(=O)Nc3ccccn3)C2=O)cc1OC`, the “activity change, negative = inhibition” value was “inactive”.
For `COc1ccccc1-n1c(C)nc2cc(C(=O)NCc3ccc4c(c3)OCO4)ccc21`, the “activity change, negative = inhibition” value was “inactive”.
In the case of `CC(=O)NN1C(=O)/C(=C/c2ccc(Br)o2)SC1=S`, the “activity change, negative = inhibition” value is reported as “inactive”.
With `CCOC(=O)/C=c1\s/c(=C\c2ccc(-c3ccccc3)cc2)c(=O)n1CC(=O)NCc1ccc2c(c1)OCO2` the “activity change, negative = inhibition” value was “inactive”.
In the case of `CC1=NN(C(N)=S)C(=O)C1N=Nc1cccc(Cl)c1C` (centres undefined), the “activity change, negative = inhibition” value is reported as “inactive”.
In the case of `C[C@H](O)CC1=C[C@H](O)[C@@H](C)OC1=O`, the “activity change, negative = inhibition” value is reported as “inactive”.
`CC(=O)Nc1ccc(-c2csc(Nc3cccc(C)n3)n2)cc1` was tested, and the “activity change, negative = inhibition” value was “inactive”.
`COC(=O)C1=C(C)OC(N)=C(C#N)C1c1cc(OC)c(OCC(N)=O)cc1Cl` (centres undefined) was tested, and the “activity change, negative = inhibition” value was “inactive”.
`O=C(NNC(=O)c1ccccc1Cl)c1csc(N2CCOCC2)n1` was tested, and the “activity change, negative = inhibition” value was “inactive”.
With `O=[N+]([O-])c1cc([N+](=O)[O-])c2cccnc2c1Oc1ccccc1O` the “activity change, negative = inhibition” value was “inactive”.
In the case of `CC1=C(C(=O)OCc2ccccc2)C(c2ccc(N(C)C)cc2)NC(=O)N1` (centres undefined), the “activity change, negative = inhibition” value is reported as “inactive”.
For `COc1cccc(NCc2cc(=O)oc3cc(C)c(O)cc23)c1`, the “activity change, negative = inhibition” value was “inactive”.
